# In patent US10907181B2, “Biosynthetic pathways and products” (REGENTS OF THE UNIVERSITY OF MINNESOTA, priority 2013, dated 2021):
# What was measured:
# [1] = liquid-liquid solvent extraction at equal volume ratio, HPLC quantification; conditions: not told
# [2] = Extraction of anhydromevalonolactone with different organic solvents (extract efficiency and partition coefficient Kd, solvent/water); type: physicochemical
# Source text: Purification of anhydromevalonolactone also was studied by extraction with different organic solvents (Table 1). Approximately 96% of the anhydromevalonolactone was extracted when chloroform was applied at a 1:1 volume ratio. […] NMR analysis indicated the anhydromevalonolactone was in the lactone form, instead of equilibrating with its hydroxyacid form (FIG. 6).
# The fermentation broth from the bioreactor was harvested by centrifuge, and then was discolored by activated charcoal. The test tubes were filled with 5 mL fermentation broth and concentrated H3PO4 or H2SO4, then autoclaved for one hour to make anhydromevalonate, and then the concentrations of mevalonate and anhydromevalonate were measured by HPLC. Immiscible organic solvents were used to extraction anhydromevalonate from the reaction mixture.
# [3] = liquid-liquid solvent extraction at equal volume ratio; conditions: not told
structure (smiles),measurement,setting,value
"CC1=CC(=O)OCC1 [Anhydromevalonolactone, anhydromevalonolactone]",partition coefficient (Kd),[1],24.89 concentration ratio (Kd)
same,Anhydromevalonolactone extract efficiency,[2]; solvent Benzene,65.26%
same,Anhydromevalonolactone extract efficiency,"[2]; solvent CHC13 (chloroform), 1:1 volume ratio",96.14%
same,Anhydromevalonolactone extract efficiency,"[2]; solvent CHC13 (chloroform), 1:1 volume ratio, listed as anhydromevalonolactone",Approximately 96%
same,Anhydromevalonolactone extract efficiency,[2]; solvent DIBK,44.15%
same,Anhydromevalonolactone extract efficiency,[2]; solvent MIBK,79.90%
same,Anhydromevalonolactone extract efficiency,[2]; solvent Oley,35.56%
same,Anhydromevalonolactone extract efficiency,[2]; solvent ethyl acetate,79.67%
same,partition coefficient (Kd),[3],25 concentration ratio (Kd)
